Consider 25 molecules from article PMC3707936 (Molecular cancer therapeutics, 2013).

Like-named read-outs stand apart in the source and are kept apart here. *1 amine or outer side, *2 acyl side, *3 side chain or, on linkers, in order; H or OH if unused. Where a SMILES comes first, the peptide text is derived from it. Bridges are numbered along the chain shown (N, C = ends). Roman numbers before positions name the chains, in order. [ ]: non-standard residue; d: D form. Actinocin(9to1) = Cc1c2oc3c(C)ccc(C(=O)[*:1])c3nc-2c(C(=O)[*:2])c(N)c1=O; NMeV = CN[C@H](C(=O)O)C(C)C; Sar = CNCC(=O)O

Common to all, as to type: cell-based
The subject of one experiment is ULTR cells. Put plainly: Quantitative drug screen, CellTiter-Blue cell viability, ULTR. The note with it: read-out: IC50 ULTR.
Experiment [1] has as its system GIST T1-10R cells. Put plainly: Quantitative drug screen, CellTiter-Blue cell viability, GIST T1-10R. The note with it: 72 h, read-out: IC50 GIST TI-10R.
Experiment [2] deals with GIST 882 cells. The experiment is described as follows: Quantitative drug screen, CellTiter-Blue cell viability, GIST 882. Particulars: Homo sapiens, GIST882, 72 h, read-out: IC50 GIST 882.
Experiment [3] concerns Hs 919.T. cells. Put plainly: Hit validation cell proliferation, 12-point dose-response, Hs 919.T. The note with it: read-out: IC50 Hs 919.T.
Experiment [4] concerns GIST 882 cells. Put plainly: Hit validation cell proliferation, 12-point dose-response, GIST 882. The note with it: Homo sapiens, GIST882, 72 h, read-out: IC50 GIST 882.
The test system of experiment [5] is GIST T1-10R cells. The experiment is described as follows: Hit validation cell proliferation, 12-point dose-response, GIST T1-10R. Particulars: 72 h, read-out: IC50 GIST T1-10R.
Experiment [6] deals with Hs 919.T. cells. The experiment is described as follows: Drug screen assay in Hs 919.T. cell line at 1 μM. Particulars: 72 h; for inhibition at 1 µM: read-out: inhibition against Hs 919.T. cell proliferation.
For a further experiment, the system named is GIST-T1 cells. The experiment is described as follows: Quantitative drug screen, CellTiter-Blue cell viability, GIST-T1. The note with it: read-out: IC50 GIST-T1.

For `CCCSc1ccc2nc(NC(=O)OC)[nH]c2c1` [Albendazole], the IC50 is 320 nM in the experiment on ULTR cells (72 h), over 1000 nM in the experiment with GIST T1-10R cells [1] and over 1000 nM in the experiment with GIST 882 cells [2].
Turning to `COc1cc(NS(C)(=O)=O)ccc1Nc1c2ccccc2nc2ccccc12` [Amsacrine], the IC50 in the experiment with ULTR cells (72 h), in the experiment with GIST T1-10R cells [1] and with GIST 882 cells [2] was over 1000 nM throughout.
In the case of `CC(C)C[C@H](NC(=O)[C@H](Cc1ccccc1)NC(=O)c1cnccn1)B(O)O` [Bortezomib], the IC50 was under 70 nM in the experiment with ULTR cells (72 h); 500 nM with GIST T1-10R cells [1]; 150 ± 10 nM in the experiment with Hs 919.T. cells [3]; 2 ± 0.3 nM in the experiment on GIST 882 cells [4]; under 70 nM in the experiment on GIST 882 cells [2]; 1 ± 1 nM with GIST T1-10R cells [5]. In addition, the inhibition at 1 µM in the experiment on Hs 919.T. cells [6] is over 50%.
Take `CCOC(=O)n1ccn(C)c1=S` [Carbimazole]: the results for the IC50 in the experiment with ULTR cells (72 h), in the experiment on GIST T1-10R cells [1] and with GIST 882 cells [2] were under 70 nM, 180 nM and 50 nM, respectively.
The like results for `CCN(CC)CCCC(C)Nc1ccnc2cc(Cl)ccc12` (stereo not shown) [Chloroquine] were, in that order, over 1000 nM, over 1000 nM and 460 nM.
The like results for `Nc1nc(Cl)nc2c1ncn2[C@H]1C[C@H](O)[C@@H](CO)O1` [Cladribine] were, in that order, 540 nM, over 1000 nM and 760 nM.
The like results for `Nc1nc(Cl)nc2c1ncn2[C@@H]1O[C@H](CO)[C@@H](O)[C@@H]1F` [Clofarabine] were, in that order, 180 nM, over 1000 nM and 990 nM.
As for `Cc1c2oc3c(C)ccc(C(=O)N[C@@H]4C(=O)N[C@H](C(C)C)C(=O)N5CCC[C@H]5C(=O)N(C)CC(=O)N(C)[C@@H](C(C)C)C(=O)O[C@@H]4C)c3nc-2c(C(=O)N[C@@H]2C(=O)N[C@H](C(C)C)C(=O)N3CCC[C@H]3C(=O)N(C)CC(=O)N(C)[C@@H](C(C)C)C(=O)O[C@@H]2C)c(N)c1=O` [Dactinomycin] (I: T[dV]P[Sar][NMeV] / II: T[dV]P[Sar][NMeV]; ester I:1-I:C, II:1-II:C; linker I:N-II:N via Actinocin(9to1)), the IC50 is under 70 nM with ULTR cells (72 h), over 1000 nM in the experiment with GIST T1-10R cells [1] and under 70 nM in the experiment with GIST 882 cells [2]. Also, the inhibition at 1 µM in the experiment on Hs 919.T. cells [6] is over 50%.
In the case of `C#C[C@]1(O)CC[C@H]2[C@@H]3CCC4=Cc5oncc5C[C@]4(C)[C@H]3CC[C@@]21C` [Danazol], the half-maximal inhibitory concentration (IC50) in the experiment on ULTR cells (72 h) was over 1000 nM; with GIST T1-10R cells [1], over 1000 nM; in the experiment on GIST 882 cells [2] it was 670 nM.
For the molecule `COc1cccc2c1C(=O)c1c(O)c3c(c(O)c1C2=O)C[C@@](O)(C(C)=O)C[C@@H]3O[C@H]1C[C@H](N)[C@H](O)[C@H](C)O1` [Daunorubicin], the IC50 is under 70 nM in the experiment on ULTR cells (72 h), over 1000 nM in the experiment on GIST T1-10R cells [1] and 170 nM in the experiment with GIST 882 cells [2]. The inhibition at 1 µM with Hs 919.T. cells [6] is over 50%.
Regarding `C[C@H]1O[C@@H](O[C@H]2[C@@H](O)C[C@H](O[C@H]3[C@@H](O)C[C@H](O[C@H]4CC[C@@]5(C)[C@H](CC[C@@H]6[C@@H]5CC[C@]5(C)[C@@H](C7=CC(=O)OC7)CC[C@]65O)C4)O[C@@H]3C)O[C@@H]2C)C[C@H](O)[C@@H]1O` [Digitoxin], the values for the IC50 in the experiment on ULTR cells (72 h), with GIST T1-10R cells [1] and in the experiment on GIST 882 cells [2] were under 70 nM, over 1000 nM and 160 nM, respectively.
On to `C[C@H]1O[C@@H](O[C@H]2[C@@H](O)C[C@H](O[C@H]3[C@@H](O)C[C@H](O[C@H]4CC[C@@]5(C)[C@H](CC[C@@H]6[C@@H]5C[C@@H](O)[C@]5(C)[C@@H](C7=CC(=O)OC7)CC[C@]65O)C4)O[C@@H]3C)O[C@@H]2C)C[C@H](O)[C@@H]1O` [Digoxin], for which the IC50 in the experiment on ULTR cells (72 h) amounted to 160 nM; in the experiment on GIST T1-10R cells [1], 930 nM; in the experiment with GIST 882 cells [2] it was 790 nM. For the same molecule, in the experiment on Hs 919.T. cells [6], the inhibition at 1 µM was over 50%.
In the same order, the values of `COc1cccc2c1C(=O)c1c(O)c3c(c(O)c1C2=O)C[C@@](O)(C(=O)CO)C[C@@H]3O[C@H]1C[C@H](N)[C@H](O)[C@H](C)O1` [Doxorubicin] are 160 nM, over 1000 nM, 80 nM and over 50%.
Consider `COc1cc([C@@H]2c3cc4c(cc3[C@@H](O[C@@H]3O[C@@H]5CO[C@@H](C)O[C@H]5[C@H](O)[C@H]3O)[C@H]3COC(=O)[C@H]23)OCO4)cc(OC)c1O` [Etoposide], for which the figures for the IC50 in the experiment with ULTR cells (72 h), in the experiment with GIST T1-10R cells [1] and in the experiment with GIST 882 cells [2] were over 1000 nM, over 1000 nM and 30 nM, respectively.
As for `Nc1nc(F)nc2c1ncn2[C@@H]1O[C@H](COP(=O)(O)O)[C@@H](O)[C@@H]1O` [Fludarabine Phosphate], the 50% inhibitory concentration (IC50) in the experiment on ULTR cells (72 h) was over 1000 nM; in the experiment with GIST T1-10R cells [1] it was 810 nM; in the experiment with GIST 882 cells [4] it was 540 ± 30 nM; in the experiment on GIST 882 cells [2] it was over 1000 nM; in the experiment with GIST T1-10R cells [5], 840 ± 200 nM.
With `CN(C)c1ccc(C(=C2C=CC(=[N+](C)C)C=C2)c2ccc(N(C)C)cc2)cc1` [Gentian Violet], the IC50 in the experiment on ULTR cells (72 h) came to 160 nM; in the experiment with GIST T1-10R cells [1] it was 960 nM; in the experiment with GIST 882 cells [2], 250 nM.
In the same order, the values of `COC(=O)Nc1nc2ccc(C(=O)c3ccccc3)cc2[nH]1` [Mebendazole] are 730 nM, over 1000 nM and over 1000 nM.
For the molecule `O=C1c2c(O)ccc(O)c2C(=O)c2c(NCCNCCO)ccc(NCCNCCO)c21` [Mitoxantrone], the half-inhibitory concentration (IC50) with ULTR cells (72 h) was under 70 nM; in the experiment on GIST T1-10R cells [1], over 1000 nM; with GIST 882 cells [2], 80 nM. Moreover, in the experiment on Hs 919.T. cells [6], the inhibition at 1 µM was over 50%.
For the molecule `Cc1cn(-c2cc(NC(=O)c3ccc(C)c(Nc4nccc(-c5cccnc5)n4)c3)cc(C(F)(F)F)c2)cn1` [Nilotimb], the IC50 with GIST-T1 cells (primary screen, 72 h, 10 μM to […] twofold dilutions, * = IC50 < 0.07 μM and drug showed no dose response) is 380 nM.
For the molecule `C[C@@H]1O[C@@H](O[C@H]2C[C@@H](O)[C@]3(CO)[C@H]4[C@H](O)C[C@]5(C)[C@@H](C6=CC(=O)OC6)CC[C@]5(O)[C@@H]4CC[C@]3(O)C2)[C@H](O)[C@H](O)[C@H]1O` [Ouabain], the IC50 with ULTR cells (72 h) was under 70 nM; in the experiment with GIST T1-10R cells [1], 240 nM; in the experiment on GIST 882 cells [2], 30 nM.
For `CC(=O)O[C@H]1C(=O)[C@@]2(C)[C@H]([C@H](OC(=O)c3ccccc3)[C@]3(O)C[C@H](OC(=O)[C@H](O)[C@@H](NC(=O)c4ccccc4)c4ccccc4)C(C)=C1C3(C)C)[C@]1(OC(C)=O)CO[C@@H]1C[C@@H]2O` [Paclitaxel], the values for the IC50 with ULTR cells (72 h), in the experiment on GIST T1-10R cells [1] and with GIST 882 cells [2] were 200 nM, over 1000 nM and over 1000 nM, respectively.
In the case of `COc1cc([C@@H]2c3cc4c(cc3[C@@H](O[C@@H]3O[C@@H]5CO[C@@H](c6cccs6)O[C@H]5[C@H](O)[C@H]3O)[C@H]3COC(=O)[C@H]23)OCO4)cc(OC)c1O` [Teniposide], the figures for the concentration for half-maximal inhibition (IC50) in the experiment on ULTR cells (72 h), with GIST T1-10R cells [1] and in the experiment on GIST 882 cells [2] were 190 nM, over 1000 nM and 90 nM, respectively.
The like results for `CC[C@@]1(O)C(=O)OCc2c1cc1n(c2=O)Cc2cc3c(CN(C)C)c(O)ccc3nc2-1` [Topotecan] were, in that order, 90 nM, over 1000 nM and 440 nM.
As for `CCC1=C[C@@H]2CN(C1)Cc1c([nH]c3ccccc13)[C@@](C(=O)OC)(c1cc3c(cc1OC)N(C)[C@H]1[C@@](O)(C(=O)OC)[C@H](OC(C)=O)[C@]4(CC)C=CCN5CC[C@]31[C@@H]54)C2` [Vinorelbine], the figures for the IC50 in the experiment with ULTR cells (72 h), in the experiment on GIST T1-10R cells [1] and in the experiment on GIST 882 cells [2] were 80 nM, over 1000 nM and over 1000 nM, respectively. For the same molecule, in the experiment on Hs 919.T. cells [6], the inhibition at 1 µM is over 50%.
For the molecule Plicamycin, the IC50 is 150 nM in the experiment with ULTR cells and 350 nM in the experiment on GIST-T1 cells. Moreover, in the experiment on Hs 919.T. cells [6] (1 μM drug), the “inhibition against Hs 919.T. cell proliferation” value was “greater than 50%”.
